According to patent publication US10808003B2, “Amphipathic molecule based on tandem malonate and use thereof” (Industry-University Cooperation Foundation Hanyang …, priority 2017, dated 2020):

Legend:
[1] = Critical micelle concentration by fluorescent staining with diphenylhexatriene (DPH); assay type: physicochemical; conditions: aqueous solution
Procedure: A method of measuring CMC is not particularly limited, and any method well known in the art, for example, a fluorescent staining method using diphenylhexatriene (DPH) may be used.
(§1) Specifically, a CMC was measured using fluorescent staining and diphenylhexatriene (DPH), and the hydrodynamic radii (Rh) of micelles formed by each agent (1.0 wt %) were measured by a DLS test. The measured results were compared with those for the conventional amphipathic molecule (detergent), DDM, and thus are shown in Table 1.

[2] = Hydrodynamic radius of micelles by dynamic light scattering (DLS); assay type: physicochemical; conditions: micelles formed by each agent at 1.0 wt %
Procedure: A method of measuring the radius of the micelles is not particularly limited, and any method well known in the art, for example, a DLS test may be used.
as §1

[3] = tested on: T1, light harvesting complex I and reaction center (LHI-RC) complex; assay: Stability of LHI-RC complex in amphipathic molecule, UV-visible spectrum over 20 days; assay type: biochemical, Rhodobacter capsulatus; conditions: CMC+0.04 wt % or CMC+0.2 wt %, 20 days at room temperature, FIGS. 7 and 8
T1 construct: His tag (only implied by the Ni-NTA / His-SpinTrap purification); made in house
Procedure: The super-assembly of R. capsulatus expressed in manipulated R. capsulatus strains was solubilized and purified according to a protocol disclosed in previous literature (P. S. Chae, Analyst, 2015, 140, 3157-3163.). A 10 mL aliquot of a frozen membrane was thawed, and homogenized using a glass tissue homogenizer at room temperature. The homogenate was incubated for 30 minutes at 32° C. under gentle agitation. After addition of 1.0 wt % DDM, the homogenate was further incubated for 30 minutes at 32° C. Following ultracentrifugation, a supernatant containing a solubilized light harvesting complex I and reaction center (LHI-RC) complex was collected, and incubated with an Ni^2+-NTA resin for 1 hour at 4° C. The resin was added to each 10 His-SpinTrap column, and then the resulting product was washed with 500 μL of a coupling buffer (10 mM Tris (pH 7.8), […], 1×CMC DDM) twice. The LHI-RC complex purified by DDM was eluted from the column using a buffer containing 1.0 M imidazole (2×300 μL). […] Protein stability was measured at regular intervals while a protein-amphipathic molecule sample was incubated by measuring the UV-visible spectrum of a specimen in a range of 650 to 950 nm.

[4] = tested on: LeuT (leucine transporter); assay: LeuT stability by [3H]-Leu substrate binding, scintillation proximity assay (SPA); assay type: biochemical, Aquifex aeolicus; conditions: TMMs or DDM at CMC+0.04 wt %, incubation at room temperature, FIG. 13a
Procedure: An experiment of measuring LeuT protein stability for TMGs and TMMs was performed. (a) CMC+0.04 wt % or (b) CMC+0.2 wt % of each amphipathic molecule was used, and the evaluation of the LeuT protein stability was performed by taking an advantage of a characteristic of LeuT binding to a substrate through a scintillation proximity assay (SPA) using [^3H]-Leu. […]
Specifically, wild type LeuT (leucine transporter) derived from a thermophilic bacterium, Aquifex aeolicus, was purified by a previously-disclosed method (G. Deckert et al., Nature 1998, 392, 353-358). LeuT was expressed in E. coli C41 (DE3) transformed with pET16b encoding a C-terminus 8×His-tagged transporter (the expression plasmid was provided by Dr E. Gouaux, Vollum Institute, Portland, Oreg., USA). In summary, following isolation of a bacterial membrane and lysis with 1% (w/v) DDM, the protein was allowed to bind to a Ni^2+-NTA resin (Life Technologies, Denmark), and eluted in 20 mM Tris-HCl (pH 8.0), 1 mM NaCl, 199 mM KCl, 0.05% (w/v) DDM and 300 mM imidazole. Afterward, the purified LeuT (approximately 1.5 mg/ml) was diluted with the same buffer used above, from which DDM and imidazole were removed, and then supplemented with TMGs or DDM at the final concentration of CMC+0.04% (w/v). […] SPA was performed using a buffer containing 450 mM NaCl and each of the TMGs and TMMs at the predetermined concentration. The SPA reaction is performed in the presence of 20 nM [^3H]-Leucine and 1.25 mg/ml copper chelate (His-Tag) YSi beads (Perkin Elmer, Denmark). A total [^3H]-Leucine binding degree of each sample was measured using a MicroBeta liquid scintillation counter (Perkin Elmer).

[5] = target: T2, melibiose permease (MelBSt) (Salmonella typhimurium, UniProt P30878); assay: MelBSt extraction and solubility at four temperatures, SDS-PAGE and western blotting; assay type: biochemical; conditions: 1.5 wt %, 90 minutes
T2 construct: made in house; host or cells: E. coli DW2 cells (melB and lacZY), plasmid pK95AHB/WT MelBSt/CH10
Procedure: An experiment was performed to measure structural stability of Salmonella typhimurium melibiose permease (MelBSt) protein by TMGs. The MelBSt protein was extracted from a membrane using TMGs or DDM, and then an amount of the extracted protein and its structure were analyzed by SDS-PAGE and western blotting. A concentration of the amphipathic molecule used was 1.5 wt %, and two types of performance such as protein extraction efficiency and stabilization ability of the compound were simultaneously evaluated by extracting the protein at four temperatures (0, 45, 55, and 65° C.), incubating the protein for 90 minutes at the same temperatures, and measuring an amount of the protein remaining dissolved in an aqueous solution. The amount of the protein extracted and stabilized by each amphipathic molecule was expressed as a relative value (%) with respect to a total amount of the protein contained in a membrane sample not treated with an amphipathic molecule.
Specifically, Salmonella typhimurium MelBSt (melibiose permease) having a 10-His tag at the C-terminus was expressed in E. coli DW2 cells (melB and lacZY) using plasmid pK95AHB/WT MelBSt/CH10. According to the method disclosed in the article written by A. S. Ethayathulla et al. (Nat. Commun. 2014, 5, 2009), cell growth and membrane preparation were performed. A protein assay was performed using a Micro BCA kit (Thermo Scientific, Rockford, Ill.). Using the protocol disclosed in Nat. Methods 2010, 7, 1003-1008 written by P. S. Chae et al., DDM or TMGs were evaluated for MelBSt stability. A MelBSt-containing membrane sample (the final protein concentration was 10 mg/mL) was incubated at four temperatures (0, 45, 55 and 65° C.) for 90 minutes in a 1.5% (w/v) DDM or TMG-containing solubilization buffer (20 mM sodium phosphate, pH 7.5, 200 mM NaCl, 10% glycerol, 20 mM melibiose). To remove insoluble material, ultracentrifugation was performed using a Beckman Optima™ MAX ultracentrifuge equipped with a TLA-100 rotor at 355,590 g at 4° C. for 45 minutes, and then 20 μg of each protein sample was separated using SDS-15% PAGE, followed by immunoblotting using a Penta-His-HRP antibody (Qiagen, Germantown, Md.). MelBSt was measured by an ImageQuant LAS 4000 biomolecular imager (GE Health Care Life Sciences) using a SuperSignal West Pico chemiluminescent substrate.

Q: Which “CMC” value [1] does the source give for `CCCCCCCCCCCCO[C@@H]1O[C@H](CO)[C@@H](O[C@H]2O[C@H](CO)[C@@H](O)[C@H](O)[C@H]2O)[C@H](O)[C@H]1O` [DDM, n-dodecyl-β-D-maltopyranoside, reference compound] here?
A: The value was ~0.17 mM.

Q: What about the “CMC (wt %)” value [1] of the same compound?
A: The value was ~0.0087 wt %.

Q: What about the “Rh (nm), hydrodynamic radius of micelles” value [2] of the same compound?
A: Its value is 3.4 ± 0.03 nm.

Q: And the “stability of the LHI-RC complex” value [3]?
A: The value was “significantly reduced complex stabilization as the concentration increased from CMC+0.04 wt % to CMC+0.2 wt %”.

Q: And the “activity of LeuT over time” value [4]?
A: Its value is “gradually reduced over time”.

Q: And the “amount of MelBSt solubilized / extraction efficiency” value ([5]; 0° C.)?
A: The value was “slightly more excellent protein extraction efficiency than TMGs”.

Q: And the MelBSt remaining solubilized ([5]; 55° C.)?
A: Its MelBSt remaining solubilized is 10%.

Q: What about the “MelBSt protein dissolved in aqueous solution” value ([5]; 65° C.) of the same compound?
A: The value was “not detected”.
